{"source": "ChEMBL document CHEMBL5390294", "about": "“Pseudoceranoids A-J, Sesquiterpene-Based Meroterpenoids with Cytotoxicity from the Sponge Pseudoceratina purpurea” (J Nat Prod, 2023)", "data": [{"tested_on": "K562", "assay": "Cytotoxicity against human K562 cells assessed as inhibition of cell growth by MTT assay", "assay_type": "functional, cell-based", "units": {"IC50": "µM"}, "values": [{"smiles": "COC1=CC(=O)C(O)=C(C[C@@]2(C)CC[C@]3(C)C(C=O)=CCC[C@H]3[C@H]2C)C1=O", "IC50": "> 30"}, {"smiles": "COC1=CC(=O)C(O)=C(C[C@@]2(C)CC[C@]3(C)[C@@H](C)C(=O)CC[C@H]3[C@H]2C)C1=O", "IC50": 16.1}, {"smiles": "C=C1CCC[C@H]2[C@@H]1CC[C@@H](C)[C@@]2(C)CC1=CC(=O)C=C(OC)C1=O", "IC50": "> 30"}, {"smiles": "COC1=CC(=O)C=C(C[C@]2(C)[C@H](C)CC[C@@H]3C(C)=CCC[C@@H]32)C1=O", "IC50": "> 30"}, {"smiles": "COc1cccc2c1C(=O)c1c(O)c3c(c(O)c1C2=O)C[C@@](O)(C(=O)CO)C[C@@H]3O[C@H]1C[C@H](N)[C@H](O)[C@H](C)O1", "note": "[DOXORUBICIN]", "IC50": "< 1"}, {"smiles": "COc1cc(O)cc2c1O[C@]1(C)CC[C@H]3C(C)(C)CCC[C@]3(C)[C@H]1C2", "IC50": 14}, {"smiles": "COC1=CC(=O)C2=C(C[C@@H]3[C@@]4(C)CCCC(C)(C)[C@@H]4CC[C@@]23C)C1=O", "IC50": "> 30"}, {"smiles": "COC1=CC(=O)[C@@H](C[C@@]2(C)CC[C@]3(C)C(C)=CCC[C@H]3[C@H]2C)[C@H]1O", "IC50": "> 30"}, {"smiles": "COC1=CC(=O)[C@H](C[C@@]2(C)CC[C@]3(C)C(C)=CCC[C@H]3[C@H]2C)[C@H]1O", "IC50": "> 30"}, {"smiles": "CCCCOC1=CC(=O)C(O)=C(C[C@@]2(C)CC[C@]3(C)C(C)=CCC[C@H]3[C@H]2C)C1=O", "IC50": 3.01}, {"smiles": "COC(=O)/C=C1/OC(=O)C(C[C@@]2(C)CC[C@]3(C)C(C)=CCC[C@H]3[C@H]2C)=C1O", "IC50": "> 30"}]}, {"tested_on": "H69AR", "assay": "Cytotoxicity against human NCI-H69AR cells assessed as inhibition of cell growth by SRB assay", "assay_type": "functional, cell-based", "units": {"IC50": "µM"}, "values": [{"smiles": "COC1=CC(=O)C(O)=C(C[C@@]2(C)CC[C@]3(C)C(C=O)=CCC[C@H]3[C@H]2C)C1=O", "IC50": 2.85}, {"smiles": "COC1=CC(=O)C(O)=C(C[C@@]2(C)CC[C@]3(C)[C@@H](C)C(=O)CC[C@H]3[C@H]2C)C1=O", "IC50": "> 30"}, {"smiles": "C=C1CCC[C@H]2[C@@H]1CC[C@@H](C)[C@@]2(C)CC1=CC(=O)C=C(OC)C1=O", "IC50": "> 30"}, {"smiles": "COC1=CC(=O)C=C(C[C@]2(C)[C@H](C)CC[C@@H]3C(C)=CCC[C@@H]32)C1=O", "IC50": "> 30"}, {"smiles": "COc1cccc2c1C(=O)c1c(O)c3c(c(O)c1C2=O)C[C@@](O)(C(=O)CO)C[C@@H]3O[C@H]1C[C@H](N)[C@H](O)[C@H](C)O1", "note": "[DOXORUBICIN]", "IC50": "< 1"}, {"smiles": "COc1cc(O)cc2c1O[C@]1(C)CC[C@H]3C(C)(C)CCC[C@]3(C)[C@H]1C2", "IC50": "> 30"}, {"smiles": "COC1=CC(=O)C2=C(C[C@@H]3[C@@]4(C)CCCC(C)(C)[C@@H]4CC[C@@]23C)C1=O", "IC50": "> 30"}, {"smiles": "COC1=CC(=O)[C@@H](C[C@@]2(C)CC[C@]3(C)C(C)=CCC[C@H]3[C@H]2C)[C@H]1O", "IC50": "> 30"}, {"smiles": "COC1=CC(=O)[C@H](C[C@@]2(C)CC[C@]3(C)C(C)=CCC[C@H]3[C@H]2C)[C@H]1O", "IC50": "> 30"}, {"smiles": "CCCCOC1=CC(=O)C(O)=C(C[C@@]2(C)CC[C@]3(C)C(C)=CCC[C@H]3[C@H]2C)C1=O", "IC50": 7.74}, {"smiles": "COC(=O)/C=C1/OC(=O)C(C[C@@]2(C)CC[C@]3(C)C(C)=CCC[C@H]3[C@H]2C)=C1O", "IC50": "> 30"}]}, {"tested_on": "MDA-MB-231", "assay": "Cytotoxicity against human MDA-MB-231 cells assessed as inhibition of cell growth by SRB assay", "assay_type": "functional, cell-based", "units": {"IC50": "µM"}, "values": [{"smiles": "COC1=CC(=O)C(O)=C(C[C@@]2(C)CC[C@]3(C)C(C=O)=CCC[C@H]3[C@H]2C)C1=O", "IC50": "> 30"}, {"smiles": "COC1=CC(=O)C(O)=C(C[C@@]2(C)CC[C@]3(C)[C@@H](C)C(=O)CC[C@H]3[C@H]2C)C1=O", "IC50": "> 30"}, {"smiles": "C=C1CCC[C@H]2[C@@H]1CC[C@@H](C)[C@@]2(C)CC1=CC(=O)C=C(OC)C1=O", "IC50": "> 30"}, {"smiles": "COC1=CC(=O)C=C(C[C@]2(C)[C@H](C)CC[C@@H]3C(C)=CCC[C@@H]32)C1=O", "IC50": "> 30"}, {"smiles": "COc1cccc2c1C(=O)c1c(O)c3c(c(O)c1C2=O)C[C@@](O)(C(=O)CO)C[C@@H]3O[C@H]1C[C@H](N)[C@H](O)[C@H](C)O1", "note": "[DOXORUBICIN]", "IC50": "< 1"}, {"smiles": "COc1cc(O)cc2c1O[C@]1(C)CC[C@H]3C(C)(C)CCC[C@]3(C)[C@H]1C2", "IC50": "> 30"}, {"smiles": "COC1=CC(=O)C2=C(C[C@@H]3[C@@]4(C)CCCC(C)(C)[C@@H]4CC[C@@]23C)C1=O", "IC50": "> 30"}, {"smiles": "COC1=CC(=O)[C@@H](C[C@@]2(C)CC[C@]3(C)C(C)=CCC[C@H]3[C@H]2C)[C@H]1O", "IC50": "> 30"}, {"smiles": "COC1=CC(=O)[C@H](C[C@@]2(C)CC[C@]3(C)C(C)=CCC[C@H]3[C@H]2C)[C@H]1O", "IC50": "> 30"}, {"smiles": "CCCCOC1=CC(=O)C(O)=C(C[C@@]2(C)CC[C@]3(C)C(C)=CCC[C@H]3[C@H]2C)C1=O", "IC50": 9.82}, {"smiles": "COC(=O)/C=C1/OC(=O)C(C[C@@]2(C)CC[C@]3(C)C(C)=CCC[C@H]3[C@H]2C)=C1O", "IC50": "> 30"}]}, {"tested_on": "ASPC1", "assay": "Cytotoxicity against human ASPC1 cells assessed as inhibition of cell growth by SRB assay", "assay_type": "functional, cell-based", "units": {"IC50": "µM"}, "values": [{"smiles": "COC1=CC(=O)C(O)=C(C[C@@]2(C)CC[C@]3(C)C(C=O)=CCC[C@H]3[C@H]2C)C1=O", "IC50": "> 30"}, {"smiles": "COC1=CC(=O)C(O)=C(C[C@@]2(C)CC[C@]3(C)[C@@H](C)C(=O)CC[C@H]3[C@H]2C)C1=O", "IC50": "> 30"}, {"smiles": "C=C1CCC[C@H]2[C@@H]1CC[C@@H](C)[C@@]2(C)CC1=CC(=O)C=C(OC)C1=O", "IC50": "> 30"}, {"smiles": "COC1=CC(=O)C=C(C[C@]2(C)[C@H](C)CC[C@@H]3C(C)=CCC[C@@H]32)C1=O", "IC50": "> 30"}, {"smiles": "COc1cccc2c1C(=O)c1c(O)c3c(c(O)c1C2=O)C[C@@](O)(C(=O)CO)C[C@@H]3O[C@H]1C[C@H](N)[C@H](O)[C@H](C)O1", "note": "[DOXORUBICIN]", "IC50": "< 1"}, {"smiles": "COc1cc(O)cc2c1O[C@]1(C)CC[C@H]3C(C)(C)CCC[C@]3(C)[C@H]1C2", "IC50": "> 30"}, {"smiles": "COC1=CC(=O)C2=C(C[C@@H]3[C@@]4(C)CCCC(C)(C)[C@@H]4CC[C@@]23C)C1=O", "IC50": "> 30"}, {"smiles": "COC1=CC(=O)[C@@H](C[C@@]2(C)CC[C@]3(C)C(C)=CCC[C@H]3[C@H]2C)[C@H]1O", "IC50": "> 30"}, {"smiles": "COC1=CC(=O)[C@H](C[C@@]2(C)CC[C@]3(C)C(C)=CCC[C@H]3[C@H]2C)[C@H]1O", "IC50": "> 30"}, {"smiles": "CCCCOC1=CC(=O)C(O)=C(C[C@@]2(C)CC[C@]3(C)C(C)=CCC[C@H]3[C@H]2C)C1=O", "IC50": "> 30"}, {"smiles": "COC(=O)/C=C1/OC(=O)C(C[C@@]2(C)CC[C@]3(C)C(C)=CCC[C@H]3[C@H]2C)=C1O", "IC50": "> 30"}]}, {"tested_on": "not listed separately", "assay": "Cytotoxicity against human L02 cells assessed as inhibition of cell growth by SRB assay", "assay_type": "toxicity, cell-based", "units": {"IC50": "µM"}, "values": [{"smiles": "COC1=CC(=O)C(O)=C(C[C@@]2(C)CC[C@]3(C)C(C=O)=CCC[C@H]3[C@H]2C)C1=O", "IC50": 12.1}, {"smiles": "COC1=CC(=O)C(O)=C(C[C@@]2(C)CC[C@]3(C)[C@@H](C)C(=O)CC[C@H]3[C@H]2C)C1=O", "IC50": 7.6}, {"smiles": "C=C1CCC[C@H]2[C@@H]1CC[C@@H](C)[C@@]2(C)CC1=CC(=O)C=C(OC)C1=O", "IC50": "> 30"}, {"smiles": "COC1=CC(=O)C=C(C[C@]2(C)[C@H](C)CC[C@@H]3C(C)=CCC[C@@H]32)C1=O", "IC50": "> 30"}, {"smiles": "COc1cc(O)cc2c1O[C@]1(C)CC[C@H]3C(C)(C)CCC[C@]3(C)[C@H]1C2", "IC50": "> 30"}, {"smiles": "COC1=CC(=O)C2=C(C[C@@H]3[C@@]4(C)CCCC(C)(C)[C@@H]4CC[C@@]23C)C1=O", "IC50": "> 30"}, {"smiles": "COC1=CC(=O)[C@@H](C[C@@]2(C)CC[C@]3(C)C(C)=CCC[C@H]3[C@H]2C)[C@H]1O", "IC50": "> 30"}, {"smiles": "COC1=CC(=O)[C@H](C[C@@]2(C)CC[C@]3(C)C(C)=CCC[C@H]3[C@H]2C)[C@H]1O", "IC50": "> 30"}, {"smiles": "CCCCOC1=CC(=O)C(O)=C(C[C@@]2(C)CC[C@]3(C)C(C)=CCC[C@H]3[C@H]2C)C1=O", "IC50": 20.3}, {"smiles": "COC(=O)/C=C1/OC(=O)C(C[C@@]2(C)CC[C@]3(C)C(C)=CCC[C@H]3[C@H]2C)=C1O", "IC50": "> 30"}]}]}
